Biological target: T1, human ABCG2 (Homo sapiens, UniProt Q9UNQ0)
T1 construct: expressed in transfected cells; host or cells: MDCK-II (canine kidney) subclone, provided by A. H. Schinkel (Netherlands Cancer Institute)
T1 sequence (Q9UNQ0 1-655): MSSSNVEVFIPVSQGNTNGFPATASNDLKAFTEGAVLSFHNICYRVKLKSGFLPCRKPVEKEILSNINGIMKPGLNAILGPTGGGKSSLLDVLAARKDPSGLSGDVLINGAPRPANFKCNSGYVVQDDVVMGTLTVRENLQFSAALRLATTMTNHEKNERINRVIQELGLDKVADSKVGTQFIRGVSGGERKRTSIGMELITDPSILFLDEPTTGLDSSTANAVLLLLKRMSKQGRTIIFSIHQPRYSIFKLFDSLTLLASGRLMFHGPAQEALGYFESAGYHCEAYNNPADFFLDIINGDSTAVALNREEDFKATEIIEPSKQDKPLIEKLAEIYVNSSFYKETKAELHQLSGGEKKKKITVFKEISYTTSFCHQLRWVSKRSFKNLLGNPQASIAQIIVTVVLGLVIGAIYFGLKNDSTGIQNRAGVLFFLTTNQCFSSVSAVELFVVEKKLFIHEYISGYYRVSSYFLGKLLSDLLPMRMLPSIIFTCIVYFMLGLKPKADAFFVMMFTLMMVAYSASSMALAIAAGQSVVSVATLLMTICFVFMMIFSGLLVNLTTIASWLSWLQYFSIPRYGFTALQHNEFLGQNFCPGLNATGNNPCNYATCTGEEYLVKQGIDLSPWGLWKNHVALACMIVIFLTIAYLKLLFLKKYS
Assay: Transepithelial transport assay in MDCK-II cells transduced with human ABCG2
Assay type: in vitro ADME
Details: MDCK-II hABCG2, nitroxynil 10 µM, no Ko143, read-out: Relative efflux transport ratio (BA/AB)
Method: Parental Madin–Darby canine kidney epithelial cells (MDCK–II) and their subclones transduced with murine (mAbcg2) and human (hABCG2) variants of ABCG2 were kindly provided by Dr. A. H. Schinkel (Netherlands Cancer Institute). Transduced MDCK–II cells with the ovine (oABCG2) and bovine (bABCG2) variants were previously generated by our group. Cells were cultured as described elsewhere.
Transepithelial transport assays were carried out as previously described with minor variations, using Hanks’ balanced salt solution (Sigma-Aldrich) supplemented with HEPES (25 mM), with or without Ko143 (1 μM), and containing or not nitroxynil 10 μM. […] At the end of the experiment, confluence of the monolayer was measured with the previously described Lucifer Yellow permeability test, with minor modifications. The appearance of nitroxynil in the opposite side of the well was measured by HPLC as later described. Active transport was expressed as relative efflux transport ratio (apically directed transport percentage divided by the basolaterally directed translocation percentage) at 4 h and referred to the initial concentration. […]
Waters 2695 separation module and Waters 2998 UV photodiode array detector set at 270 nm were used for samples analysis. […] Limit of detection (LOD) and quantification (LOQ) were calculated as previously described. […]

Structure (SMILES): N#Cc1cc(I)c(O)c([N+](=O)[O-])c1 [nitroxynil]
- efflux ratio at 4 h, 10 µM: 8.76 ± 0.5
